# Entries after “also recorded” stand apart in the source; their conditions may differ.
# Legend:
# [1] = tested on: neurons seeded in chip; assay type: cell-based, human
# [2] = tested on: cell monolayers with tight junctions; conditions: passive paracellular diffusion only; cited from earlier work
# [3] = tested on: iBMEC barrier; experiment: TEER measurement of iBMEC barrier function on TEER chips under flow; assay type: cell-based, human; conditions: exposure of chips under flow to TNFa, FIG. 14A
# Experimental: Cells were plated on tall channel PDMS chips equipped with incorporated gold electrodes on each channel (see FIG. 13A). Post seeding of BMECs, transendothelial electrical resistance was measured by connecting the electrodes to an EVOM2 voltohmmeter (see FIG. 13B). […] The “damaged” chip was a failure due to the TEER-Chips being a prototype.
# Higher TEER values generally indicate a tighter barrier, which is typically desirable for a blood-brain barrier.
# [4] = tested on: BMECs seeded on a microfluidic device; experiment: Paracellular permeability assay with Dextran-FITC on chip; assay type: cell-based, human; conditions: TNFa exposure, FIG. 14B
# Experimental: Albumin or Dextran conjugated to a fluorescent probe (e.g., FITC or TRITC) are frequently used to monitor changes in leakage, and thus barrier function. In this case, Dextran-FITC, a green fluorescent molecule of 4 KDa, or sodium fluorescein (a 0.3 KDa molecule), was added to the bottom (“blood side”) channel. Paracellular permeability was calculated by measuring the permeability of the fluorescent molecule on the Top (“brain side”) channel. […] FIG. 14B involves TNF-alpha exposure, but the readout is membrane permeability as measured by Dextran-FITC.
compound,measurement,setting,value
"NC1=N[C@H](O)[C@H]2[C@H]3O[C@]4(O)O[C@@H]([C@@H](O)[C@@]2(N1)[C@@H]4O)[C@]3(O)CO [TTX, tetrodotoxin]",effect on neuronal calcium flux activity,[1],ablates this activity
Lucifer Yellow,permeability across cell monolayers (in words),[2],low permeability
TNFa,effect on iBMEC barrier function (TEER),[3],weakening of barrier function; also recorded: decrease in barrier function and TEER
same,effect on permeability to dextran-FITC through the semi-porous membrane,[4],increase in permeability

# From US11174462B2, “Microfluidic model of the blood brain barrier” (EMULATE, Inc., priority 2015, dated 2021)
